# How the values were obtained:
# Type in all cases: in vivo
# Settings in all cases: Postemergence
# [1] = tested on: cocklebur (Xanthium strumarium); experiment: Test B pre-/postemergence plant response
# In short: (§1)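 Visual ratings on a 0–100 scale (100 = complete control) were made versus untreated controls 13–15 days after treatment in a greenhouse. Compounds in surfactant-containing non-phytotoxic solvent were applied preemergence to seeds in loam–sand blend or postemergence to 1- to 4-leaf plants (2–18 cm).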
# [2] = tested on: goosegrass (Eleusine indica); experiment: Test B pre-/postemergence plant response
# In short: as §1
# [3] = tested on: johnsongrass (Sorghum halepense); experiment: Test B pre-/postemergence plant response
# In short: as §1
# kochia (Kochia scoparia) = experiment: Test B pre-/postemergence plant response
# In short: as §1
# [4] = tested on: pigweed (Amaranthus retroflexus); experiment: Test B pre-/postemergence plant response
# In short: as §1
# [5] = tested on: ragweed (common ragweed, Ambrosia elatior); experiment: Test B pre-/postemergence plant response
# In short: as §1
# soybean (Glycine max) = experiment: Test B pre-/postemergence plant response
# In short: as §1
# [6] = tested on: velvetleaf (Abutilon theophrasti); experiment: Test B pre-/postemergence plant response
# In short: as §1
# [7] = tested on: wheat (Triticum aestivum); experiment: Test B pre-/postemergence plant response
# In short: as §1
# wild oat (Avena fatua) = experiment: Test B pre-/postemergence plant response
# In short: as §1
# [8] = tested on: canarygrass (Phalaris minor); experiment: Test B postemergence plant response
# In short: (§2)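 Visual ratings from 0 (no effect) to 100 (complete control), made against controls 13–15 days after treatment, kept in a greenhouse. Compounds were applied postemergence to potted plants at the 1- to 4-leaf stage (2–18 cm).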
# [9] = tested on: chickweed (Stellaria media); experiment: Test B postemergence plant response
# In short: as §2
# [10] = tested on: windgrass (Apera spica-venti); experiment: Test B postemergence plant response
# In short: as §2
# [11] = 31 g ai/ha, 0 to 100 scale (0 no effect, 100 complete control)
# [12] = 125 g ai/ha, scale 0 to 100 (0 no effect, 100 complete control)
# [13] = 250 g ai/ha, scale 0 to 100 (0 no effect, 100 complete control), 13 to 15 days
compound,measurement,setting,value
O=C1CCCC(O)=C1C(=O)c1cnc(-c2cccc(F)c2)n(C2CCCCC2)c1=O [Compound 187],"Plant response rating, Cocklebur",[1]; [11],100
same,"Plant response rating, Cocklebur",[1]; [12],100
same,"Plant response rating, Cocklebur",[1]; [13],100
same,"Plant response rating, Goosegrass",[2]; [11],85
same,"Plant response rating, Goosegrass",[2]; [12],100
same,"Plant response rating, Goosegrass",[2]; [13],100
same,"Plant response rating, Johnsongrass",[3]; [11],90
same,"Plant response rating, Johnsongrass",[3]; [12],100
same,"Plant response rating, Johnsongrass",[3]; [13],100
same,"Plant response rating, Kochia",kochia (Kochia scoparia); [11],40
same,"Plant response rating, Kochia",kochia (Kochia scoparia); [12],70
same,"Plant response rating, Kochia",kochia (Kochia scoparia); [13],80
same,"Plant response rating, Pigweed",[4]; [11],100
same,"Plant response rating, Pigweed",[4]; [12],100
same,"Plant response rating, Pigweed",[4]; [13],100
same,"Plant response rating, Ragweed",[5]; [11],95
same,"Plant response rating, Ragweed",[5]; [12],100
same,"Plant response rating, Ragweed",[5]; [13],100
same,"Plant response rating, Soybean",soybean (Glycine max); [11],98
same,"Plant response rating, Soybean",soybean (Glycine max); [12],100
same,"Plant response rating, Soybean",soybean (Glycine max); [13],100
same,"Plant response rating, Velvetleaf",[6]; [11],90
same,"Plant response rating, Velvetleaf",[6]; [12],100
same,"Plant response rating, Velvetleaf",[6]; [13],100
same,"Plant response rating, Wheat",[7]; [11],0
same,"Plant response rating, Wheat",[7]; [12],5
same,"Plant response rating, Wheat",[7]; [13],5
same,"Plant response rating, Oat, Wild",wild oat (Avena fatua); [11],10
same,"Plant response rating, Oat, Wild",wild oat (Avena fatua); [12],45
same,"Plant response rating, Oat, Wild",wild oat (Avena fatua); [13],45
same,"Plant response rating, Canarygrass",[8]; [11],10
same,"Plant response rating, Canarygrass",[8]; [12],55
same,"Plant response rating, Canarygrass",[8]; [13],60
same,"Plant response rating, Chickweed",[9]; [11],100
same,"Plant response rating, Chickweed",[9]; [12],100
same,"Plant response rating, Chickweed",[9]; [13],100
same,"Plant response rating, Windgrass",[10]; [11],10
same,"Plant response rating, Windgrass",[10]; [12],65
same,"Plant response rating, Windgrass",[10]; [13],80

# From patent US8952024B2, “Herbicidal pyrimidone derivatives” (E I du Pont de Nemours and Company, priority 2009, dated 2015)
